Test results from paper PMC6934184, “Selective DNA-PKcs inhibition extends the therapeutic index of localized radiotherapy and chemotherapy” (The Journal of Clinical Investigation, 2019).

Target: T1, MAP3K3 (MEKK3) (Homo sapiens, UniProt Q99759)
T1 construct: purchased Thermo Fisher Scientific (Life Technologies) SelectScreen
Experiment: SelectScreen LanthaScreen
Assay type: binding
Conditions: read-out: % displacement
Summary of the method: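 SelectScreen broad panel; activity (Z'LYTE, Adapta) plus binding formats. ATP: Km app for CSF1R Z'LYTE; 10 for CAMK1 Adapta. Readout = % per kinase.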

T1 sequence (Q99759 whole entry): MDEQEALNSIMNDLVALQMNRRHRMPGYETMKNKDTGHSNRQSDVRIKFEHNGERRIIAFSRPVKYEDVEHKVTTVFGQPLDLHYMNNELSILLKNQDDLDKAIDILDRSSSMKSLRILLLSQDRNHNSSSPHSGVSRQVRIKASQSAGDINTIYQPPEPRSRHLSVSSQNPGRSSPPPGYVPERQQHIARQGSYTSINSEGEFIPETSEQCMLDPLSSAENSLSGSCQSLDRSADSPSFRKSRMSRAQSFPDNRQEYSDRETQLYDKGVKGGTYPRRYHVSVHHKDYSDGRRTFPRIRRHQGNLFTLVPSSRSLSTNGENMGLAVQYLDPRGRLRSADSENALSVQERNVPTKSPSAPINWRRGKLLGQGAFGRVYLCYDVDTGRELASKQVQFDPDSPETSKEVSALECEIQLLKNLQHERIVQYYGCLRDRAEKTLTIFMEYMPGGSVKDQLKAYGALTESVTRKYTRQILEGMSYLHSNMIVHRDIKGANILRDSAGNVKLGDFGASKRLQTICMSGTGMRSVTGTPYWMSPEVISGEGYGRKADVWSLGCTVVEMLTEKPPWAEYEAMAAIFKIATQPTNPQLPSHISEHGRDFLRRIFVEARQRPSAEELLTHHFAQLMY

## CN(C(=O)CN1CCOCC1)c1ccc2sc3c(-c4cccc5c(=O)cc(N6CC7CCC(C6)O7)oc45)cccc3c2c1 [NU5455]
  inhibition at 1 µM: -1.1%
